Measured values from US20140227408A1, “MEAT TREATMENT AND PRESERVATION METHOD” (RED MEAT AS, priority 2011, published 2014).
Marks after values point to notes of the source that are not given here.

Columns and labels:
Design in all cases: species or system cattle
[1] = Colour L*, a*, b* of treated ground beef, low oxygen packaging (Example 5); settings: for L* / a* / b*: citrate High level (0.025 mol/kg), low oxygen, adjusted mean ± standard error
Source text: (§1) Beef M. semimembranosus (M.S.) and beef fat tissue were collected four days post mortem (Fatland A/S, Oslo, Norway). The packaging day is defined as day zero, however, the tissues were 4 days post mortem on packing day. A piece of meat from proximal end was cut from each muscle in order to measure oxygen consumption, pH and surface colour. Fat tissue from pigs fed rapeseed and vitamin E to enhance the content of polyunsaturated fatty acids were from HKScan (Ruokatalo, Finland). The fat tissue was transported vacuum-packaged and frozen. Samples of minced fat tissue were removed for fatty acid analysis.
(§2) The beef muscles were cut into pieces of approximately 10×5 cm and mixed to 14% w/w fat by using the fat tissues. Beef fat and pork fat tissues were ground twice with either raw beef from four young (16-19 months) or four old (46-81 months) cattle. […] The ground meat was blended manually with solutions (all at pH 5.8) with various TCA and glycolytic ingredients (see below).
(§3) To maintain pH at 5.8 the solutions were prepared by mixing the acid form and the corresponding sodium salt of these chemicals.
[…] The solution was quickly and properly stirred into the minced meat and the blended system was subsequently packaged. […] Two reference samples with 40 ml of distilled water added to 360 gram of ground beef were also prepared each of the four production day, i.e. altogether 8 references were prepared. The samples were packaged in either low or high oxygen atmosphere.
(§4) The ground beef was packaged in black amorphous polyethylene terephthalate (APET) trays that were sealed with ethylene vinyl alcohol (EVOH) top films. The trays and films (Wipak Multipet and Wipak Biaxer, both Wipak, Nastola, Finland) had oxygen transmission rates of 7 and 5 cm^3/m^2/24 h at 23° C. at 50% relative humidity. Packaging was carried out within 1 hour after grinding. The samples were stored in darkness at 4° C. for 8 days in a high-oxygen atmosphere (75% oxygen and 25% CO2) and for 13 days in a low-oxygen atmosphere (60% CO2 and 40% N2). These food grade gas mixtures were supplied by AGA (Oslo, Norway).
(§5) The colour of the ground meat samples was measured with a Konica Minolta Chroma Meter CR 410 (Konica Minolta Sensing Inc., Osaka, Japan) using the glass light projection tube CR A 33e with wide illumination area (61 mm) and illuminant D65. The instrument was calibrated each day by measuring a white ceramic plate (L*=97.9; a*=0.05; b*=2). All colour measurements were made with 3 replicates (CIE, 1976, “Recommendations on uniform colour spaces-colour difference equations” (Vol. Supplement No. 2 to CIE). Paris, France: Commission Internationale de l'Eclairage).
(§6) The colour of the samples packaged in high O2 was measured after 0, 1, 3, 6 and 8, days of storage from packaging day, while low O2 samples were measured at 0 to 13 days of storage using Minolta and reflectance measurements.
The experimental design is visualized in FIG. 5. A 2^2 design (animal age and type of fat tissue) was split over 4 experimental days (FIG. 5, and Tables 10 and 11). To each corner of this 2^2 design was added a 3 component (succinate, pyruvate and glutamate-malate additions; 0, 50 and 100%) simplex lattice mixture design with 2 additional centre experiments as shown in FIG. 5.

myoglobin in ground beef [2] = test: Myoglobin states (DMb, OMb, MMb) by reflectance spectra of treated ground beef, low oxygen packaging (Example 5); settings: for DMb / MMb / OMb: citrate High level (0.025 mol/kg), low oxygen, adjusted mean ± standard error
Source text: as §1, §2, §3
(§7) 40 g of 0.1 M or 0.05 M solutions were added to ground beef-fat mixture (360 g) to a total weight of 400 g. The solution was quickly and properly stirred into the minced meat and the blended system was subsequently packaged. […] Two reference samples with 40 ml of distilled water added to 360 gram of ground beef were also prepared each of the four production day, i.e. altogether 8 references were prepared. The samples were packaged in either low or high oxygen atmosphere.
as §4
(§8) Samples were scanned, […], with a Foss NIRSystems OptiProbe™ 6500 Analyzer (Foss NIRSystems Inc., Maryland, USA) without opening of the package. The package was turned upside-down before measurements so that the meat would fall on the packaging film. The samples were scanned with three random placements of the probe on the package surface in order to increase the scanning area and reduce the measurement errors. Thirty-two scans for both reference and samples were acquired and averaged on each measured area. All measurements were performed at room temperature (approx. 20° C.) according to Khatri, et al. (Meat Sci. (2012) 91(3): 223-231). These spectra were used to predict OMb, MMb and DMb levels. Calibration was performed using comminuted meat with 10% w/w added water.
as §6
(§9) The statistical analysis was performed according to the approach described by Langsrud et al. (J. Appl. Statist. (2007) 34:1275-1296) and implemented in the 50-50 MANOVA software (http://www.langsrud.com/stat/program.htm). This program handles mixture designs as generalized categorical variables (generalized ANOVA). When using this method one can always formulate equivalent models that use the individual mixture variables as ordinary (one degree of freedom) regression variables. Then one arbitrary mixture variable has to be omitted (slack variable).

myoglobin in ground beef [3] = test: Myoglobin states (DMb, OMb, MMb) by reflectance spectra of treated ground beef, high oxygen packaging (Example 5); settings: for DMb / MMb / OMb: citrate High level, high oxygen, adjusted mean ± standard error
Source text: as §1
The beef muscles were cut into pieces of approximately 10×5 cm and mixed to 14% w/w fat by using the fat tissues. Beef fat and pork fat tissues were ground twice with either raw beef from four young (16-19 months) or four old (46-81 months) cattle. The meat had pH of 5.65 and was ground with a Seydelmann ME-130 (Seydelmann, Stuttgart, Germany) grinder through a plate with 3 mm openings. The ground meat was blended manually with solutions (all at pH 5.8) with various TCA and glycolytic ingredients (see below).
as §3, §7, §4, §8, §6
as §9, with “variable). […]” for “variable).”

[4] = Colour L*, a*, b* of treated ground beef, high oxygen packaging (Example 5); settings: citrate High level
Source text: as §1, §2, §3, §7, §4, §5, §6
The experimental design is visualized in FIG. 5. A 2^2 design (animal age and type of fat tissue) was split over 4 experimental days (FIG. 5, and Tables 10 and 11). […] 5.

[5] = Colour (b*) of minced beef mixed with test brines, stored in high-oxygen atmosphere (Example 1); settings: day 6 of storage, amount 1 = 0.1 mol per kg meat
Description: (§10) Beef fat and pork fat (high degree of unsaturation) were used with raw semimembranosus muscle from young and old cattle. Beef from the hind leg was removed, weighed, chopped, mixed with fat (14% by weight), and the various test compounds were added to the minced meat. The mixtures were packed into boxes and sealed with plastic sheeting. Packing was done with MAP to yield a low-oxygen atmosphere (60% CO2 and 40% N2) and also under a high-oxygen atmosphere (75% oxygen and 25% CO2). The samples were stored in darkness at 4° C. from 0 to 8 days for the high-oxygen atmosphere and 0 to 13 days for the MAP samples. A Cheers Packaging Machine (Promens) was used for packaging of samples. Triplicate reference samples with only 40 ml of distilled water mixed and packaged as described above were evaluated at days 6 and 8 for the high-oxygen environment and at days 6, 8, 10 and 13 for the MAP environment.
(§11) Samples of test compounds were prepared with succinate, glutamate, malate, pyruvate and citrate in different combinations, either as single chemicals or as mixtures. The acid and conjugate base of each active component was added in the appropriate ratio to provide the solutions (brines) with a pH of 5.8. As will be clear from the foregoing description, the “succinate” used in this experiment was a combination of succinic acid and sodium succinate. The “glutamate”, “malate”, etc. were used equivalently.
(§12) Meat and fat was cut into small pieces and minced (3 mm holes). 40 g of brine was added to 360 g mince and packed in the plastic packing.
(§13) Several variables were included in the design of the experiment, using a 2^3 factorial design. […] Malate and glutamate were considered together in the design and analysis, but their ratio was varied in the experiments from pure malate to pure glutamate.
(§14) Colour changes in the samples were measured with a FOSS NIRSystems™ 6500 analyser and a Konica Minolta Chroma meter CR 410 (Konica Minolta Sensing Inc., Osaka, Japan). Colour was measured using the parameters L*, a* and b* at 0, 1, 3, 6 and 8 days for samples stored in 75% oxygen. Colour changes of the samples packaged in MAP were measured at 0, 1, 3, 6, 8, 10 and 13 days of storage time.
Results from the experiments carried out on the various meat and fat samples are shown below in Tables 1 to 8. Values given for the amount of active agents in Tables 1 to 8 correspond to the molar proportion of the given agent within the brine/meat mixture, where a value of 1 corresponds to 0.1 moles active agent per kg of meat, a value of 0.5 corresponds to 0.05 mol/kg, etc. […]
The data from the experiment described in Example 1 were analyzed using an ANOVA model with all main effect and second and higher order effects according to the method described in Langsrud, Ø. […]

[6] = Colour (b*, a*) of minced beef mixed with test brines, stored in low-oxygen MAP (Examples 1-2); settings: for b*: low oxygen (MAP), day 6 of storage, amount 1 = 0.1 mol per kg meat
Description: as §10, §11, §12, §13, §14
Results from the experiments carried out on the various meat and fat samples are shown below in Tables 1 to 8. Values given for the amount of active agents in Tables 1 to 8 correspond to the molar proportion of the given agent within the brine/meat mixture, where a value of 1 corresponds to 0.1 moles active agent per kg of meat, a value of 0.5 corresponds to 0.05 mol/kg, etc. […] The b* values, which are considered to be most representative of the colour changes in the meat being tested, are shown. All results correspond to measurements made on day 6 of storage
The data from the experiment described in Example 1 were analyzed using an ANOVA model with all main effect and second and higher order effects according to the method described in Langsrud, Ø. (“50-50 Multivariate Analysis of Variance for Collinear Responses” The Statistician (2002) 51, pp. 305-317). […] The mixture design was fractional.

[7] = Day 1, adjusted mean ± standard error
[8] = Day 3, adjusted mean ± standard error
[9] = Day 6, adjusted mean ± standard error
[10] = Day 8, adjusted mean ± standard error
[11] = old beef muscle mixed with beef fat
[12] = old beef muscle mixed with pork fat
[13] = young beef muscle mixed with pork fat

N[C@@H](CCC(=O)O)C(=O)O [glutamate]
effect on redness (a*), in words ([1]; low oxygen packaging): nominally higher a* values

O=C(O)CC(O)(CC(=O)O)C(=O)O [Citrate]
DMb (myoglobin in ground beef [2]; Day 1): 42.1 ± 3.3 %
MMb (myoglobin in ground beef [2]; Day 1): 50.2 ± 3.0 %
OMb (myoglobin in ground beef [2]; Day 1): 7.8 ± 0.4 %
DMb (myoglobin in ground beef [2]; Day 3): 55.5 ± 3.3 %
MMb (myoglobin in ground beef [2]; Day 3): 39.1 ± 3.1 %
OMb (myoglobin in ground beef [2]; Day 3): 5.5 ± 0.4%
DMb (myoglobin in ground beef [2]; Day 6): 64.9 ± 3.1%
OMb (myoglobin in ground beef [2]; Day 6): 3.7 ± 0.4%
DMb (myoglobin in ground beef [2]; Day 8): 66.6 ± 3.1%
OMb (myoglobin in ground beef [2]; Day 8): 4.1 ± 0.4%
DMb (myoglobin in ground beef [2]; Day 10): 69.9 ± 3.0%
MMb (myoglobin in ground beef [2]; Day 10): 26.3 ± 2.9 %
OMb (myoglobin in ground beef [2]; Day 10): 3.8 ± 0.3%
DMb (myoglobin in ground beef [2]; Day 13): 72.3 ± 4.1 %
MMb (myoglobin in ground beef [2]; Day 13): 23.9 ± 3.8 %
OMb (myoglobin in ground beef [2]; Day 13): 3.8 ± 0.5 %
effect on myoglobin states (DMb, OMb, MMb), in words (myoglobin in ground beef [2]; low oxygen packaging): increased OMb and MMb while the DMb was reduced
L* ([1]; Day 1): 33.5 ± 0.3
a* ([1]; Day 1): 6.6 ± +.3*
b* ([1]; Day 1): 2.3 ± 0.2
L* ([1]; Day 3): 33.0 ± 0.3
a* ([1]; Day 3): 7.1 ± 0.2
b* ([1]; Day 3): 2.3 ± 0.1*
L* ([1]; Day 6): 33.3 ± 0.2*
a* ([1]; Day 6): 7.5 ± 0.2
b* ([1]; Day 6): 2.2 ± 0.1*
L* ([1]; Day 8): 33.4 ± 0.2*
a* ([1]; Day 8): 7.5 ± 0.2
b* ([1]; Day 8): 2.1 ± 0.1*
L* ([1]; Day 10): 33.4 ± 0.2*
a* ([1]; Day 10): 7.6 ± 0.2
b* ([1]; Day 10): 2.1 ± 0.1
L* ([1]; Day 13): 33.2 ± 0.3*
a* ([1]; Day 13): 7.6 ± 0.4
b* ([1]; Day 13): 2.1 ± 0.2*
DMb (myoglobin in ground beef [3]; Day 1): 0.0 ± 0.0 %
MMb (myoglobin in ground beef [3]; Day 1): 6.6 ± 0.3%
OMb (myoglobin in ground beef [3]; Day 1): 93.4 ± 0.6%
DMb (myoglobin in ground beef [3]; Day 3): 0.0 ± 0.0%
MMb (myoglobin in ground beef [3]; Day 3): 10.5 ± 0.6%
OMb (myoglobin in ground beef [3]; Day 3): 89.5 ± 0.6%
DMb (myoglobin in ground beef [3]; Day 6): 0.5 ± 0.3%
MMb (myoglobin in ground beef [3]; Day 6): 20.4 ± 0.6%
OMb (myoglobin in ground beef [3]; Day 6): 79.1 ± 0.7%
DMb (myoglobin in ground beef [3]; Day 8): 0.6 ± 0.2%
MMb (myoglobin in ground beef [3]; Day 8): 26.7 ± 0.7%
OMb (myoglobin in ground beef [3]; Day 8): 72.7 ± 0.8%
effect on myoglobin states (DMb, OMb, MMb), in words (myoglobin in ground beef [3]; high oxygen packaging): nominal higher values for OMb
L* [4, 7]: 34.2 ± 0.3
a* [4, 7]: 13.0 ± 0.2*
b* [4, 7]: 4.5 ± 0.1*
L* [4, 8]: 33.6 ± 0.3*
a* [4, 8]: 12.3 ± 0.2*
b* [4, 8]: 4.4 ± 0.1*
L* [4, 9]: 33.8 ± 0.3
a* [4, 9]: 11.0 ± 0.3
b* [4, 9]: 4.1 ± 0.2*
L* [4, 10]: 33.9 ± 0.3
a* [4, 10]: 10.3 ± 0.2
b* [4, 10]: 4.0 ± 0.1*

O=C(O)CC(O)C(=O)O (racemic) [malate]
effect on yellowness (b*), in words ([1]; low oxygen packaging): nominally higher b* values

O=C(O)CCC(=O)O [succinate 1.00, succinate]
b* [5, 11]: 3.45
b* [5, 12]: 3.77
b* ([5]; young beef muscle mixed with beef fat): 4.01
b* [5, 13]: 4.70
a* ([6]; low-oxygen environment, zero citrate, after 6 days storage, relative amounts of succinate, pyruvate, glutamate + malate): 9.81
b* [6, 11]: 1.48
b* [6, 12]: 0.98
b* ([6]; young beef muscle mixed with beef fat, 4° C.): 1.07
b* [6, 13]: 1.34
